Like-named read-outs stand apart in the source and are kept apart here.
Columns and labels:
Type in all cases: in vivo
Plasmopara viticola = test: Test B: grape downy mildew, spray 24 h after inoculation (disease rating, 100 = 100% disease control)
Text: (§1) The test compounds were first dissolved in acetone in an amount equal to 3% of the final volume and then suspended at the desired concentration (in ppm) in acetone and purified water (50/50 mix by volume) containing 250 ppm of the surfactant Trem® 014 (polyhydric alcohol esters). The resulting test suspensions were then used in tests A-E. Spraying a 200 ppm test suspension to the point of run-off on the test plants was the equivalent of a rate of 500 g/ha.
Grape seedlings were inoculated with a spore suspension of Plasmopara viticola (the causal agent of grape downy mildew) and incubated in a saturated atmosphere at 20° C. for 24 h. After a short drying period, the test suspension was sprayed to the point of run-off on the grape seedlings and then moved to a growth chamber at 20° C. for 5 days, after which the test units were placed back into a saturated atmosphere at 20° C. for 24 h. Upon removal, disease ratings were made.
(§2) Results for Tests A-F are given in Table A. In the table, a rating of 100 indicates 100% disease control and a rating of 0 indicates no disease control (relative to the controls). A dash (-) indicates no test results.

Phytophthora infestans [1] = test: whole plant or invertebrate; conditions: for Test C disease rating (100 = 100% disease control, 0 = no disease control): tomato late blight
Phytophthora infestans [2] = test: whole plant or invertebrate; conditions: for Test D disease rating (100 = 100% disease control, 0 = no disease control): tomato late blight
[3] = system: Erysiphe graminis f. sp. tritici; test: Test E: wheat powdery mildew, spray the day before inoculation (disease rating, 100 = 100% disease control)
Text: as §1
The test suspension was sprayed to the point of run-off on wheat seedlings. The following day the seedlings were inoculated with a spore dust of Erysiphe graminis f. sp. tritici, (the causal agent of wheat powdery mildew) and incubated in a growth chamber at 20° C. for 7 days, after which disease ratings were made.
as §2

[4] = spray 24 h after inoculation, compounds without asterisk (not 40 or 10 ppm)
[5] = spray the day before inoculation, compounds without asterisk (not 40 or 10 ppm)
[6] = spray 17 h after inoculation, compounds without asterisk (not 40 or 10 ppm)
[7] = sprayed 24 h after inoculation, unmarked compounds (no asterisk, not 40 or 10 ppm)
[8] = sprayed the day before inoculation, unmarked compounds (no asterisk, not 40 or 10 ppm)
[9] = sprayed 17 h after inoculation, unmarked compounds (no asterisk, not 40 or 10 ppm)
[10] = sprayed the day before inoculation, 7 days at 20° C., unmarked compounds (no asterisk, not 40 or 10 ppm)
[11] = spray the day before inoculation, tested at 40 ppm
[12] = sprayed 24 h after inoculation, tested at 10 ppm (**)
[13] = sprayed the day before inoculation, tested at 10 ppm (**)
[14] = sprayed 17 h after inoculation, tested at 10 ppm (**)

| Compound | Test B disease rating (100 = 100% disease control, 0 = no disease control) (Plasmopara viticola; [4]) [%] | Test C disease rating (100 = 100% disease control, 0 = no disease control) (Phytophthora infestans [1]; [5]) [%] | Test E disease rating (100 = 100% disease control, 0 = no disease control) [3, 5] [%] | Test B disease rating (100 = 100% disease control, 0 = no disease control) (Plasmopara viticola; [7]) | Test C disease rating (100 = 100% disease control, 0 = no disease control) (Phytophthora infestans [1]; [8]) | Test D disease rating (100 = 100% disease control, 0 = no disease control) (Phytophthora infestans [2]; [9]) | further results |
| --- | --- | --- | --- | --- | --- | --- | --- |
| Cc1cc(C(F)(F)F)nn1CC(=O)N1CCC(c2nc(C(=O)N(C)C3CCC(C)c4ccccc43)cs2)CC1 (mixture of isomers) [compound 192] | 97 | 100 | 0 |  |  |  | Test D disease rating (100 = 100% disease control, 0 = no disease control) (Phytophthora infestans [2]; [6]): 99% |
| Cc1cc(C(F)(F)F)nn1CC(=O)N1CCC(c2nc(C(=O)N(C)C3CCCC4CCCCC43)cs2)CC1 (mixture of isomers) [compound 254] |  |  |  | 95 | 99 | 99 | Test E disease rating (100 = 100% disease control, 0 = no disease control) [3, 10]: 0 |
| Cc1cc(C(F)(F)F)nn1CC(=O)N1CCC(c2nc(C(=O)N(C)[C@@H]3CC[C@@H](O)c4ccccc43)cs2)CC1 (racemic) [Compound 206, N-methyl-2-[1-[[5-methyl-3-(trifluoromethyl)-1H-pyrazol-1-yl]acetyl]-4-piperidinyl]-N-[(1R,4R)-1,2,3,4-tetrahydro-4-hydroxy-1-naphthalenyl]-4-thiazolecarboxamide] |  |  |  |  |  |  | pest or weed control at 40 ppm (Plasmopara viticola; Plasmopara viticola, 144 h, spray 24 h after inoculation, tested at 40 ppm, read-out: Test B disease rating (100 = 100% disease control, 0 = no disease control)): 99%; pest or weed control at 40 ppm (Phytophthora infestans [1]; Phytophthora infestans, in Solanum lycopersicum, 144 h, read-out: Test C disease rating (100 = 100% disease control, 0 = no disease control)): 100%; pest or weed control at 40 ppm (Phytophthora infestans [2]; Phytophthora infestans, in Solanum lycopersicum, topical, 96 h, read-out: Test D disease rating (100 = 100% disease control, 0 = no disease control)): 99%; pest or weed control at 40 ppm ([3]; Blumeria graminis, topical, 168 h, spray the day before inoculation, tested at 40 ppm, read-out: Test E disease rating (100 = 100% disease control, 0 = no disease control)): 0% |
| Cc1cc(C(F)(F)F)nn1CC(=O)N1CCC(c2nc(C(=O)N(C)C3c4ccccc4CC3O)cs2)CC1 (racemic) [compound 200] |  |  |  |  |  |  | Test B disease rating (100 = 100% disease control, 0 = no disease control) (Plasmopara viticola; spray 24 h after inoculation, tested at 40 ppm): 39%; Test C disease rating (100 = 100% disease control, 0 = no disease control) (Phytophthora infestans [1]; [11]): 98%; Test D disease rating (100 = 100% disease control, 0 = no disease control) (Phytophthora infestans [2]; spray 17 h after inoculation, tested at 40 ppm): 98%; Test E disease rating (100 = 100% disease control, 0 = no disease control) [3, 11]: 0% |
| Cc1ccc(C)c(CC(=O)N2CCC(c3nc(C(=O)N(C)C(C#N)c4ccccc4)cs3)CC2)c1 (stereo not shown) [compound 102] | 100 | 99 | 0 |  |  |  |  |
| C=CC(c1ccccc1)N(C)C(=O)c1csc(C2CCN(C(=O)Cc3cc(C)ccc3C)CC2)n1 (stereo not shown) [compound 103] | 100 | 71 | 79 |  |  |  |  |
| C=CCC(c1ccccc1)N(C)C(=O)c1csc(C2CCN(C(=O)Cc3cc(C)ccc3C)CC2)n1 (stereo not shown) [compound 104] | 100 | 87 | 0 |  |  |  |  |
| Cc1ccc(C)c(CC(=O)N2CCC(c3nc(C(=O)N(C)[C@H](C)c4cccc5ccccc45)cs3)CC2)c1 [compound 105] | 96 | 100 | 0 |  |  |  |  |
| Cc1ccc(C)c(CC(=O)N2CCC(c3nc(C(=O)N(C)[C@H](C)c4ccc5ccccc5c4)cs3)CC2)c1 [compound 106] | 0 | 24 | 0 |  |  |  |  |
| CC[C@H](c1ccccc1)N(C)C(=O)c1csc(C2CCN(C(=O)Cc3cccc(Br)c3)CC2)n1 [compound 107] | 99 | 100 | 0 |  |  |  |  |
| CC[C@H](c1ccccc1)N(C)C(=O)c1csc(C2CCN(C(=O)Cc3cccc(C(F)(F)F)c3)CC2)n1 [compound 108] | 99 | 100 | 0 |  |  |  |  |
| COCC(c1ccccc1)N(C)C(=O)c1csc(C2CCN(C(=O)Cc3cc(C)ccc3C)CC2)n1 (stereo not shown) [compound 109] | 99 | 99 | 94 |  |  |  |  |
| COc1ccc(CCN(C)C(=O)c2csc(C3CCN(C(=O)Cc4cc(C)ccc4C)CC3)n2)cc1OC [compound 171] | 0 |  | 0 |  |  |  | Test D disease rating (100 = 100% disease control, 0 = no disease control) (Phytophthora infestans [2]; [6]): 24% |
| Cc1cc(C(F)(F)F)nn1CC(=O)N1CCC(n2nnc(C(=O)N(C)[C@@H]3CCCc4ccccc43)n2)CC1 [compound 256] |  |  |  |  |  |  | Test B disease rating (100 = 100% disease control, 0 = no disease control) (Plasmopara viticola; sprayed 24 h after inoculation, tested at 40 ppm (*)): 99; Test C disease rating (100 = 100% disease control, 0 = no disease control) (Phytophthora infestans [1]; sprayed the day before inoculation, tested at 40 ppm (*)): 100; Test D disease rating (100 = 100% disease control, 0 = no disease control) (Phytophthora infestans [2]; sprayed 17 h after inoculation, tested at 40 ppm (*)): 86 |
| Cc1cc(Cl)nn1CC(=O)N1CCC(c2nc(C(=O)N(C)[C@@H]3CCCc4ccccc43)cs2)CC1 [compound 257] |  |  |  |  |  |  | Test B disease rating (100 = 100% disease control, 0 = no disease control) (Plasmopara viticola; [12]): 99; Test C disease rating (100 = 100% disease control, 0 = no disease control) (Phytophthora infestans [1]; [13]): 100; Test D disease rating (100 = 100% disease control, 0 = no disease control) (Phytophthora infestans [2]; [14]): 99 |
| Cc1cc(Br)nn1CC(=O)N1CCC(c2nc(C(=O)N(C)[C@@H]3CCCc4ccccc43)cs2)CC1 [compound 258] |  |  |  |  |  |  | Test B disease rating (100 = 100% disease control, 0 = no disease control) (Plasmopara viticola; [12]): 100; Test C disease rating (100 = 100% disease control, 0 = no disease control) (Phytophthora infestans [1]; [13]): 100; Test D disease rating (100 = 100% disease control, 0 = no disease control) (Phytophthora infestans [2]; [14]): 99 |
| C[C@H](NC(=O)c1csc(C2CCN(C(=O)Cc3ccccc3Cl)CC2)n1)c1ccccc1 [compound 260] |  |  |  | 14 | 0 |  | Test E disease rating (100 = 100% disease control, 0 = no disease control) [3, 10]: 0 |
| Cc1cc(C(F)(F)F)nn1CC(=O)N1CCC(c2nc(C(=O)N[C@H](C)c3ccccc3)cs2)CC1 [compound 301] |  |  |  | 99 | 99 | 80 |  |
| CCN(C(=O)c1csc(C2CCN(C(=O)Cn3nc(C(F)(F)F)cc3C)CC2)n1)[C@H](C)c1ccccc1 [compound 302] |  |  |  | 86 | 95 | 26 |  |
| CCCN(C(=O)c1csc(C2CCN(C(=O)Cn3nc(C(F)(F)F)cc3C)CC2)n1)[C@H](C)c1ccccc1 [compound 303] |  |  |  | 45 | 95 | 26 |  |
| C=CCN(C(=O)c1csc(C2CCN(C(=O)Cn3nc(C(F)(F)F)cc3C)CC2)n1)[C@H](C)c1ccccc1 [compound 304] |  |  |  | 72 | 57 | 26 |  |
| Cc1cc(C(F)(F)F)nn1CC(=O)N1CCC(c2nc(C(=O)N[C@@H]3CCCc4ccccc43)cs2)CC1 [compound 305] |  |  |  | 100 | 100 | 99 |  |
| CCN(C(=O)c1csc(C2CCN(C(=O)Cn3nc(C(F)(F)F)cc3C)CC2)n1)[C@@H]1CCCc2ccccc21 [compound 306] |  |  |  | 96 | 100 | 83 |  |
